Measurements from patent US20230270676A1 (priority 2020, published 2023).

Tests used:
Type in all cases: cell-based, human
[1] = test system: HCT116 cells; assay: Apoptosis of tumor cells by flow cytometry (Annexin V-FITC/PI); details: 48 h after administration, untreated group 16%
Method: 48 h after administration, a supernatant in each group was removed, the cells were washed with 1×PBS 3 times and then digested with EDTA-free trypsin for 2 min, and a 10% FBS-containing cell culture medium was added to stop the digestion. The resulting suspension was collected in a centrifuge tube and centrifuged at 1,000 rpm for 3 min, and resulting cells were washed twice with 1×PBS (4° C.) and resuspended in 400 μL of an Annexin V binding solution. 5 μL of an Annexin V-FITC staining solution was added, and the cells were incubated in the dark for 15 min. 10 μL of a PI staining solution was added, and the cells were incubated in the dark for 5 min. The cells were immediately tested by FC.

[2] = test system: HCT116 cells; assay: Plate cloning experiment for proliferation of tumor cells (HCT116); details: untreated group 62.0±7.6
Method: (§1) Each of the HCT116 and SW-480 cells in a logarithmic growth phase was prepared into a suspension with a 10% FBS-containing cell culture medium, blown into single cells, counted, inoculated into a six-well plate at a density of 1×10^3 cells/well, and cultivated in a 5% CO2/37° C. incubator with saturated humidity until the cells were adherent to the wall. […] After the administration, the cells were often observed, and when clone spheres visible to the naked eye appeared, the cell cultivation was stopped, the supernatant was discarded, the cells were washed twice with PBS, and 1 mL of 4% paraformaldehyde (PFA) was added to conduct fixation for 20 min. The fixation solution was removed, the cells were washed 3 times with PBS, a 1% gentian violet staining solution was added to conduct staining for 30 min, and then the cells were slowly rinsed with running water to remove the staining solution, dried in an oven at 37° C., and photographed and counted. Colony-forming efficiency (CFE)=(number of cell clones/number of inoculated cells)×100%. […] The colony number was calculated for each group.

[3] = test system: SW-480 cells; assay: Transwell migration experiment (SW-480); details: drug 15 μg/mL, 36 h, untreated group 100.0±11.7
Method: Each of the HCT116 and SW-480 cells in a logarithmic growth stage was taken and prepared into a suspension with a serum-free cell culture medium, counted, and diluted in folds, and a serum-free cell culture medium with the drug of 15 μg/mL was added. 200 μL of the suspension was inoculated into an upper chamber of a Transwell cell at a density of 1×10^5 cells/well, 500 μL of a 10% FBS-containing cell culture medium was added to a lower chamber of the Transwell cell, and the Transwell cell was incubated in a 5% CO2/37° C. incubator with saturated humidity for 36 h. The number of cells passing through the cell was counted, and cells in the upper chamber were gently wiped off with a cotton swab. Cells in the lower chamber were fixed with formaldehyde for 15 min, then stained with a 1% gentian violet staining solution for 30 min, and observed and counted under a microscope.

[4] = test system: SW-480 cells; assay: Plate cloning experiment for proliferation of tumor cells (SW-480); details: untreated group 36.1±7.5
Method: as §1

CO[C@H]1C[C@@H]2CC[C@@H](C)[C@@](O)(O2)C(=O)C(=O)N2CCCC[C@H]2C(=O)O[C@H]([C@H](C)C[C@@H]2CC[C@@H](O)[C@H](OC)C2)CC(=O)[C@H](C)/C=C(\C)[C@@H](O)[C@@H](OC)C(=O)[C@H](C)C[C@H](C)/C=C/C=C/C=C/1C [free RAPA, rapamycin]
Apoptosis rate [1]: 21% | Colony number [2]: 49.2±5.2 | Percentage of cells passing through the cell [3]: 57.4±10.6% | Colony number [4]: 33.2±3.7
